Reference: ChEMBL document CHEMBL1201862, “PubChem BioAssay data set” (2004)
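Cells were grown in 96-well plates and exposed to each compound for 48 hours at five concentrations; endpoints were interpolated linearly between bracketing concentrations, or set to the highest concentration if not reached. GI50: concentration for 50% inhibition of growth.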 Active and inactive are the calls of the source. Rule as the data show it: active = GI50 up to about 1.1 µM and inactive = higher.

What was measured:
Test in all cases: growth of human tumour cells (NCI), 48 h
XF498 = test system: XF498
RXF 631 = test system: RXF 631
LXFL 529 = test system: LXFL 529
SNB-78 = test system: SNB-78
DMS-273 = test system: DMS-273
HOP-18 = test system: HOP-18
KM-20L2 = test system: KM-20L2
DLD-1 = test system: DLD-1

Measured: GI50

CCOP(=O)(C/C(=N/NC(C)(C)C)C(=O)Nc1nc2ccc(C)cc2s1)OCC
inactive: XF498 > 100 µM | RXF 631 > 100 µM | LXFL 529 > 100 µM | SNB-78 > 100 µM | DMS-273 > 100 µM | HOP-18 > 100 µM | KM-20L2 > 100 µM

Cc1cc(Br)cc(C)c1NC(=O)C(=O)C(C(=O)c1ccc2ccccc2c1)C1OC(=O)c2ccccc21 (stereo not given)
inactive: XF498 1.14 µM | RXF 631 16.4 µM | LXFL 529 7.93 µM | SNB-78 > 10 µM | DMS-273 11 µM | DLD-1 13 µM | HOP-18 21.7 µM | KM-20L2 19.2 µM

Cc1ccc(SSCCCS(=O)O)cc1
inactive: XF498 > 100 µM | RXF 631 20.4 µM | LXFL 529 27.7 µM | DMS-273 24.5 µM | DLD-1 45.8 µM | HOP-18 > 100 µM | KM-20L2 31.7 µM

COc1cc2ccnc(-c3n[nH]c4cc(OC)c(OC)cc34)c2cc1OC
inactive: XF498 > 100 µM | RXF 631 33 µM | LXFL 529 > 100 µM | DMS-273 > 100 µM | HOP-18 > 100 µM | KM-20L2 > 100 µM

C/C(CC(=O)Nc1ccc([N+](=O)[O-])cc1)=N/N=C(N)N
inactive: XF498 > 100 µM | RXF 631 > 100 µM | LXFL 529 82 µM | SNB-78 > 100 µM | DMS-273 > 100 µM | DLD-1 > 100 µM | KM-20L2 > 100 µM

O=C1NC2(O)c3ccccc3C(=O)C2(O)N1c1ccccc1 (stereo not given)
inactive: XF498 > 100 µM | RXF 631 > 100 µM | LXFL 529 > 100 µM | DLD-1 > 100 µM | HOP-18 > 100 µM | KM-20L2 > 100 µM

Cc1nc(-n2nc(-c3ccccc3)cc2-c2ccccc2)sc1C(=O)/C=C/c1ccc(/C=C/C(=O)c2sc(-n3nc(-c4ccccc4)cc3-c3ccccc3)nc2C)cc1
inactive: XF498 21.8 µM | RXF 631 28.1 µM | LXFL 529 27.7 µM | SNB-78 33.4 µM | DMS-273 21.1 µM | DLD-1 20.8 µM | KM-20L2 19.1 µM

CCOC(=O)CCCO
inactive: XF498 > 100 µM | RXF 631 > 100 µM | LXFL 529 > 100 µM | DLD-1 > 100 µM | HOP-18 > 100 µM | KM-20L2 > 100 µM

N#CCCN(c1ccc(-c2nnc(NC(=O)CNNC(=O)CC(=O)Nc3ccccc3)s2)cc1)S(=O)(=O)c1ccccc1
inactive: XF498 > 100 µM | RXF 631 > 100 µM | LXFL 529 89.9 µM | DMS-273 > 100 µM | DLD-1 > 100 µM | HOP-18 > 100 µM
